Our source for the IC50 and inhibition values is US6083969A, “1,3- and 2,3-diarylcycloalkano and cycloalkeno pyrazoles as selective inhibitors of cyclooxygenase-2 and antiinflammatory agents” (Ortho-McNeil Pharaceutical, Inc., priority 1999, dated 2000).

Molecules are shown by their SMILES. Where only a bound is given, the exact number is not on record here.

Assay [1] concerns the target T1, COX-1 (Homo sapiens, UniProt P23219).
T1 construct: Remove the platelet-rich plasma (PRP) and dilute the PRP 1:20 with 0.9% NaCl; endogenous in cells; host or cells: human platelets (platelet-rich plasma of one volunteer)
Put plainly: Human platelet thromboxane B2 production (via COX-1). Format: cell-based. The settings on record: human platelets, TXB2 production; read-out: P5: COX 1 Human Platelet IC50. As to the method:
HUMAN […] THROMBOXANE B2 PRODUCTION (via COX-1)
Procedure 5 was used to determine thromboxane B2 (TXB2) production (via COX-1) in human platelets as follows:
Draw blood from one volunteer into heparinized tubes then spin at RT for 15 to 20 minutes at 1,000 RPM. Remove the platelet-rich plasma (PRP) and dilute the PRP 1:20 with 0.9% NaCl containing 14.4U heparin/mL. Add 180 μL of the diluted PRP to each well of a 96-well plate and incubate at 37° C. for 5 minutes. Then add 20 μL vehicle (HBSS with 1% DMSO) or drug and incubate for 15 minutes at 37° C. Add 10 μl calcium ionophore and incubate 15 minutes at 37° C. Stop the reaction on slush ice for 5 minutes and assay supernatants immediately for TXB2 production via RIA or EIA.
Prepare all drugs at 10 mM in DMSO by diluting the drug in HBSS at a 1.100 ratio with 1% DMSO to 100 μM. Add 20 μl to PRP (1:10 ratio) to obtain 10 μM final concentration. The calcium ionophore is prepared by using 7 mg/mL free acid calcium ionophore in DMSO, which is warmed until the ionophore goes into solution. Just prior to use, dilute the solution 1:25 with HBSS.

Assay [2] addresses T2, human prostaglandin H2 synthase type II (COX-2) (Homo sapiens, UniProt P35354).
T2 sequence (P35354 18-604): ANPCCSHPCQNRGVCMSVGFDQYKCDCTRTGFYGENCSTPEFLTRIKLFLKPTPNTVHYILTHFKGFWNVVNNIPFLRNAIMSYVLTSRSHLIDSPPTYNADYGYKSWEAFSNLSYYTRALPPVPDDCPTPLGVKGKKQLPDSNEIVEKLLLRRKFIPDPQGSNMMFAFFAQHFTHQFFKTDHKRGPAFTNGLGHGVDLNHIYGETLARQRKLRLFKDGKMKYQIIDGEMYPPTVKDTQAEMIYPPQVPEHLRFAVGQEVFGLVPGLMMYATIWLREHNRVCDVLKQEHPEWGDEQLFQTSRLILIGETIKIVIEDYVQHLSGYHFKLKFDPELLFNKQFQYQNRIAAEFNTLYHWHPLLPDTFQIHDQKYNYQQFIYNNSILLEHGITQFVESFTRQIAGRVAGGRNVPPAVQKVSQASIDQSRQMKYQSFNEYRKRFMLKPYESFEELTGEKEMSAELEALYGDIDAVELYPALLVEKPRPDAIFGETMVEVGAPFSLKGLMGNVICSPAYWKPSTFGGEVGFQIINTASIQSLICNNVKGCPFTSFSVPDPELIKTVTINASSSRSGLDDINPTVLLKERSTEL
Put plainly: Human prostaglandin H2 synthase type II (COX-2) whole cell assay (ECV-304 cells, PGE2 by radioimmunoassay). The class given is cell-based. Particulars: for IC50: read-out: P2: COX 2 Whole Cell IC50; for inhibition at 3 µM: @3 μM (superscript a); for inhibition at 3 µM / inhibition at 10 µM: read-out: P1: COX 2 Whole Cell % Inhibition. On the set-up: endogenous in cells; host or cells: ECV-304. As to the method: HUMAN PROSTAGLANDIN H2 SYNTHASE TYPE II (COX-2) WHOLE CELL ASSAY (MULTIPLE CONCENTRATIONS)
Procedures 1 and 2 were used to determine the ability of the compounds to inhibit human prostaglandin H2 synthase type II (COX-2) in a whole cell assay at multiple concentrations as follows:
Approximately 28 h later, […] PMA and […] ionomycin (both final concentrations) are added to each well and incubated for an additional 16 h. Vehicle or test compounds in the amount of […] are incubated with the cells for five minutes prior to initiation of COX-2 enzyme activity by the addition of 30 μM arachidonic acid. Ten minutes later, an aliquot of the supernatant is withdrawn and the amount of PGE2 present quantitated by radioimmunoassay. Activity, reported as percent inhibition of PGE2 produced, is calculated as follows: [formula]

The target of assay [3] is T2, human prostaglandin H2 synthase type II (COX-2). As to the kind of experiment: Human prostaglandin H2 synthase type II (hCOX-2) homogenate assay (transfected COS-7 cells, PGE2 formation). Format: biochemical. On the set-up: expressed in transfected cells; host or cells: COS-7 (African Green Monkey Kidney). The settings on record: COS-7 homogenate; read-out: P4: COX 2 Homogenized Cell IC50. As to the method: HUMAN PROSTAGLANDIN H2 SYNTHASE TYPE II (hCOX-2) HOMOGENATE ASSAY (SINGLE CONCENTRATION)
Procedures 3 and 4 were used to assess COX-2 activity in a homogenized cell assay as follows:
COS-7 (African Green Monkey Kidney) cells are maintained in a suitable medium, and are trypsinized and plated at a density of 1×10^6 cells/well of a 6 well plate prior to assay. Approximately 24 hours later, cells are transiently transfected with a plasmid containing the human COX-2 gene using the lipofectamine method. Two days later, the cell-free homogenate is prepared by subjecting the cells to a polytron followed by centrifugation at 9,000×g. COX activity, initiated by the addition of […] arachidonic acid to the 9,000×g supernatant, is monitored in the presence of vehicle or drug. Product (PGE2) formation is quantitated by radioimmunoassay. Activity, reported as percent inhibition of PGE2 produced, is calculated as follows: [formula]

T1 sequence (P23219 24-599): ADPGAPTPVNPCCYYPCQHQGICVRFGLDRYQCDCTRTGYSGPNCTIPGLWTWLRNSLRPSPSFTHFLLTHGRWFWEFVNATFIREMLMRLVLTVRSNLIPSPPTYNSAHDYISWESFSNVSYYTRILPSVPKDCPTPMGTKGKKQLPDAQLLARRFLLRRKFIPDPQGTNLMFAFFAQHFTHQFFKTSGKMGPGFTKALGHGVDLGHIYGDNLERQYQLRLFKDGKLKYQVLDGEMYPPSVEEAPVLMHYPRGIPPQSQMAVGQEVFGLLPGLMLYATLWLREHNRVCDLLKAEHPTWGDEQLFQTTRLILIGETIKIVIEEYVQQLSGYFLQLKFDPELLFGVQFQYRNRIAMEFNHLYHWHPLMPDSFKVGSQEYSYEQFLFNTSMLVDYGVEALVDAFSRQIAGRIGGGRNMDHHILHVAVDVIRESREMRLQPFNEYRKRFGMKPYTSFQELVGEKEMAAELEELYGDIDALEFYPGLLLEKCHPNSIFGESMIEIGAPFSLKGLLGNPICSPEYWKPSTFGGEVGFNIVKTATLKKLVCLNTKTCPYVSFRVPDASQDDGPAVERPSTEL

A word on the IC50: it is the midpoint of a concentration-inhibition curve. `CS(=O)(=O)c1ccc(-n2nc3ccccc3c2-c2ccc(Cl)cc2)cc1` [Example 32d]: the concentration for half-maximal inhibition (IC50) in assay [1] is 16 µM; in assay [2], 0.97 µM.
Take `CS(=O)(=O)c1ccc(-n2nc3c(c2-c2ccc(F)cc2)CCC=C3)cc1` [Example 5b]: the IC50 in assay [2] was 4.75 µM.
Usually inhibition stands for the share of the control response that was lost under treatment. In the case of `CS(=O)(=O)c1ccc(-n2nc(-c3ccc(Cl)cc3)c3c2CCCC3)cc1` [Example 30e], the inhibition at 3 µM in assay [2] was determined as 21%.
Turning to `CS(=O)(=O)c1ccc(-n2nc(-c3ccc(F)cc3)c3ccccc32)cc1` [Example 32i], in assay [2], the inhibition at 3 µM was 12%.
For the compound `Clc1ccc(-c2nn(-c3ccccc3)c3c2CCC3)cc1` [Example 3-1], the IC50 in assay [1] turned out to be 10 µM; in assay [2], 2.59 µM.
The corresponding values for `Clc1ccc(-c2nn(-c3ccccc3)c3c2CCCC3)cc1` [Example 6-1b, 3-(4-Chlorophenyl)-4,5,6,7-tetrahydro-1-phenyl-1H-indazole] are 10 µM and 0.62 µM.
Taken in the same sequence, the figures for `c1ccc(-c2nn(-c3ccccc3)c3c2CCCC3)cc1` [Example 6, 1,3-Diphenyl-cyclohexa-[1,2-d]-pyrazole] were 0.49 µM and 0.57 µM.
As to `CS(=O)(=O)c1ccc(-n2nc3c(c2-c2ccc(Cl)cc2)CCC(=O)C3)cc1` [Example 52b], the IC50 in assay [1] was more than 10 µM; in assay [2], 1.44 µM.
As to `COc1ccc(-n2nc3c(c2-c2ccc(F)cc2)CC2(CC3)OCCO2)cc1` [Example 30c], the concentration for half-maximal inhibition (IC50) in assay [2] is more than 10 µM; in assay [3], 20.3 µM.
Taken in the same sequence, the figures for `COc1ccc(-n2nc3c(c2-c2ccc(F)cc2)CCCCC3)cc1` [Example 13-1g] were 3.64 µM and 8.1 µM.
For the compound `CS(=O)(=O)c1ccc(-n2nc3c(c2-c2ccc(Cl)cc2)CCC=C3)cc1` [Example 4b], the IC50 in assay [1] was more than 10 µM; in assay [2] it was 2.33 µM.
Taken in the same sequence, the figures for `c1ccc(-c2nn(-c3ccccc3)c3c2CCCCC3)cc1` [Example 7, 1,3-Diphenyl-4,5,6,7,8,-[5H]cycloheptano-[1,2-d]-pyrazole] were 0.12 µM and 0.17 µM.
As to `COc1ccc(-c2nn(-c3ccccc3)c3c2CCCCC3)cc1` [Example 13-2b, 3-(4-Methoxy)-1-phenyl-cycloheptano-[1,2-d]-pyrazole], the IC50 is 10 µM in assay [1] and 1.24 µM in assay [2].
Turning to `Clc1ccc(-c2nn(-c3ccc(Cl)cc3)c3c2CCC3)cc1` [Example 2, 1,3-Di-(4-Chlorophenyl)-cyclopenta-[1,2-d]-pyrazole], in assay [2], the inhibition at 10 µM was 0%.
Regarding `CS(=O)(=O)c1ccc(-n2nc3c(c2-c2ccc(F)cc2)CCC2OC32)cc1` (stereo not drawn) [Example 48e], the IC50 in assay [1] is more than 10 µM; in assay [2] it was 6.28 µM.
Taken in the same sequence, the figures for `Cc1ccc(-n2nc3c(c2-c2ccc(Cl)cc2)CCCCC3)cc1` [Example 13-1e] were 10 µM and 1.22 µM.
Regarding `CS(=O)(=O)c1ccc(-n2nc(-c3ccc(F)cc3)c3c2C=CCC3)cc1` [Example 32h], the inhibition at 3 µM in assay [2] is 13%.
`Fc1ccc(-n2nc(-c3ccc(Cl)cc3)c3c2-c2c([nH]c4ccc(F)cc24)CC3)cc1` [Example 32f]: the IC50 was 0.64 µM in assay [1] and 6.2 µM in assay [2].
Turning to `Clc1ccc(-c2nn(-c3ccc(Cl)cc3)c3c2CCCCC3)cc1` [Example 13, 3-(4-Chlorophenyl)-1-(4-chlorophenyl)-cycloheptano-[1,2-d]-pyrazole], in assay [2], the inhibition at 10 µM came to 3% and the 50% inhibitory concentration (IC50) amounted to 10 µM.
For the compound `CS(=O)(=O)c1ccc(-n2nc3c(c2-c2ccc(Cl)cc2)CCCC3)cc1` [Example 30d], the IC50 in assay [1] was more than 10 µM; in assay [2], 0.82 µM.
Taken in the same sequence, the figures for `Clc1ccc(-c2c3c(nn2-c2ccccc2)CCCC3)cc1` [Example 6-1a, 3-(4-Chlorophenyl)-4,5,6,7-tetrahydro-2-phenyl-2H-indazole] were more than 10 µM and 0.57 µM.
The corresponding values for `CS(=O)(=O)c1ccc(-n2nc3c(c2-c2ccc(Cl)cc2)CCC(O)C3)cc1` (stereo not drawn) [Example 49d] are more than 10 µM and 10 µM.
Taken in the same sequence, the figures for `CS(=O)(=O)c1ccc(-n2nc(-c3ccc(C(F)(F)F)cc3)c3c2C=CCC3)cc1` [Example 32g] were more than 10 µM and more than 10 µM.
Regarding `Clc1ccc(-c2c3c(nn2-c2ccccc2)CCCCC3)cc1` [Example 13-1f], the IC50 came out at 5.5 µM in assay [1] and 1.38 µM in assay [2].
`COc1ccc(-n2nc3c(c2-c2ccc(Cl)cc2)CCCCC3)cc1` [Example 13-1c]: the results for the IC50 in assay [1] and in assay [2] were more than 10 µM and 19.5 µM, respectively.
As to `Fc1ccc(-n2nc(-c3ccc(Cl)cc3)c3c2CCCCC3)cc1` [Example 13-1b, 3-(4-Chlorophenyl)-1-(4-fluorophenyl)-cycloheptano-[1,2-d]-pyrazole], the 50% inhibitory concentration (IC50) in assay [1] and in assay [2] was more than 10 µM each time. In addition, the inhibition at 10 µM in assay [2] was 59%.
Take `CS(=O)(=O)c1ccc(-n2nc3c(c2-c2ccc(F)cc2)CCCCC3)cc1` [Example 13-1h]: in assay [2], the IC50 worked out at 10 µM.
Same read-out and setting: as for `CS(=O)(=O)c1ccc(-n2nc3c(c2-c2ccc(Cl)cc2)CCC2OC32)cc1` (stereo not drawn) [Example 48d], the figure is 9.58 µM.
Take `CS(=O)(=O)c1ccc(-c2c3ccccc3nn2-c2ccc(F)cc2)cc1` [Example 32e]: the IC50 in assay [1] is more than 10 µM; in assay [2], 0.32 µM.
Turning to `CS(=O)(=O)c1ccc(-n2nc3c(c2-c2ccc(F)cc2)CC2(CC3)OCCO2)cc1` [Example 30b], the IC50 in assay [2] was more than 10 µM; in assay [3] it was 21.7 µM.
On to `CS(=O)(=O)c1ccc(-n2nc3c(c2-c2ccc(Cl)cc2)CCCCC3)cc1` [Example 13-1d], for which the values for the IC50 in assay [1], in assay [2] and in assay [3] were more than 10 µM, 9.41 µM and 1.5 µM, respectively.
